Data taken from patent US9763911B2, “Prostacyclin compositions for regulation of fracture repair and bone formation” (MAYO FOUNDATION FOR MEDICAL EDUCATION AND RESEARCH, priority 2013, dated 2017).

Experiments:
[1] = test system: β-catenin in KO OC clone 8 cells; experiment: Activated β-catenin protein in Sost KO clonal osteocytes treated with Wnt inhibitor (immunoblot); type: cell-based, mouse; conditions: KO OC 8 cells, treatment for 48 hours, vs vehicle, P<0.05 (FIG. 7A)
Procedure: (§1) FIGS. 7A and 7B show inhibition of Wnt secretion with C-59 reduces intra-cellular activated β-catenin concentrations and 6-keto PGF1α concentrations. […] KO OC clone 8 cells were treated with a Wnt inhibitor, C-59 (2-(4-(2-methylpyridin-4-yl)phenyl)-N-(4(pyridine-3-yl)phenyl)acetamide) to assess the functional importance of β-catenin signaling in sclerostin-mediated increases in PGI2 synthesis.
Wells in a 6-well collagen treated plate were seeded with 0.2×10^6 sclerostin knock-out osteocytes (Clone KO8). After 48 hours, normal growth medium was removed, and cells were rinsed with PBS. Serum-free media was then added (α-MEM, 1% P/S) to the osteocytes as was well as either 100 nM of the small molecule Wnt inhibitor, C59 (2-(4-(2-methylpyridin-4-yl)phenyl)-N-(4-(pyridine-3-yl)phenyl) acetamide), or a vehicle control. After a 48 hour incubation, media was harvested from both vehicle and experimental wells and assayed for 6-keto prostaglandin F1α.
Cell lysates from 6- or 12-well plates were prepared by scraping cells in lysis buffer (0.1% SDS, 150 mM NaCl, 2 mM sodium vanadate, 0.5% sodium deoxycholate, 1% NP-40 50 mM Tris pH 8.2, 1 mM EDTA with one mini-complete protease inhibitor cocktail EDTA-free tab (Roche Diagnostics, Indianapolis, Ind.)) per 7 ml lysis solution or by direct addition of 1×SDS sample containing 5 mM EDTA and protease inhibitor as above. […]

[2] = test system: 6-keto PGF1α (PGI2 synthesis) in KO OC clone 8 cells; experiment: 6-keto PGF1α in culture medium of treated Sost KO clonal osteocytes (EIA); type: cell-based, mouse; conditions: 100 nM C59, 48 h, vehicle 274.964±6.006 pg/mL, P=0.012 (FIG. 7B)
Procedure: as §1
All prostaglandin metabolite measurements were performed by enzyme immunoassay (EIA) using kits from Cayman Chemical (Ann Arbor, Mich.). 6-Keto prostaglandin Flα (Catalog Number 515211), prostaglandin E2 (Catalog Number 514010), Prostaglandin E Metabolite (Catalog Number 514531), prostaglandin F2α (Catalog Number 516011), prostaglandin D2 (Catalog Number 512031), and thromboxane B2 (Catalog Number 519031) were all performed according to kit instructions. Culture medium was diluted 1:2 in supplied buffer for each metabolite measurement, solubilized bone proteins were diluted 1:100 in supplied buffer for each metabolite measurement, and urine was diluted 1:500 in supplied buffer for each metabolite measurement.
Wells in a 6-well collagen treated plate were seeded with 0.2×10^6 sclerostin knock-out osteocytes (Clone KO8). After 48 hours, normal growth medium was removed, and cells were rinsed with PBS. […]

Compound: Cc1cc(-c2ccc(CC(=O)Nc3ccc(-c4cccnc4)cc3)cc2)ccn1 [C59, 2-(4-(2-methylpyridin-4-yl)phenyl)-N-(4(pyridine-3-yl)phenyl)acetamide]
- β-catenin protein concentration in cells [1]: statistically significant decrease
- 6-keto PGF1α in culture medium [2]: 536.409 ± 60.690 pg/mL
